Converted amounts (≈) assume the structure as drawn. Like-named read-outs stand apart in the source and are kept apart here.
Legend:
[1] = test system: HIV (HIV-1IIIB strain); assay: Antiviral activity: inhibition of HIV cytotoxicity in MT-4 cells (MTT); format: cell-based; conditions: Human immunodeficiency virus 1, MT4, 120 h, read-out: EC50: concentration of the compound that achieved 50% inhibition of cytotoxicity by the virus
Description: (§1) (A) A human T-cell strain MOLT-4 clone 8, persistently infected with HIV (HIV-1IIIB strain), was cultured in RPMI-1640 medium supplemented with 10% fetal bovine serum. The culture supernatant was then filtered and stored at -80° C. after a measurement of viral titer. Each of test compounds was diluted with the above culture medium so as to be a predetermined concentration, and 50 μl of the solution was added to each of wells of a 96-well microtiter plate. Then, after the addition of each 100 μl of MT-4 cell suspension (3.5×10^4 cells) to the well, the above-prepared HIV-containing supernatant was diluted with the above medium and 50μl of the dilution (60 plaque forming units) was added to each well.
(§2) (B) After incubation of the 96-well microtiter plate in a CO2 -incubator at 37° C. for 5 days, 30 μl of MTT [3-(4,5-dimethylthiazole-2-yl)-2,5-diphenyltetrazorium bromide, 5 mg/ml, PBS] was added to each well and incubation was continued for 1 hour.
(§3) Cells having survived reduced MTT to precipitate formazan. 150 μl of culture supernatant was removed from each well and 150 μl of a solubilizing solution (10% Triton X-100 and isopropanol supplemented with 0.4% (V/V) HCl) was added to each well and the plate was shaken by using a plate mixer to dissolve the formazan. The dissolved formazan was measured by O.D. at 540 nm and the results were compared with referenced control. EC50 (μg/ml) was defined as a concentration of the compound that achieved 50% inhibition of cytotoxicity by the virus. DMSO was used as a solvent and the tested concentrations were 0.0001-10 μg/ml.

[2] = Cytotoxicity against MT-4 cells (MTT); format: cell-based; conditions: human
Description: as §1, §2, §3
Cytotoxicities of the test compounds against the MT-4 cells were measured in the same manner as step (A) of the above-described antiviral activity test, provided that 50 μl of the culture medium was added to each well instead of the HIV-containing supernatant (virus solution), which was followed by the same treatment as step (B). CC50 (μg/ml) was defined as a concentration of test compound inducing 50% cytotoxicity.

[3] = MT-4 cells, no virus, 5 days at 37° C., MTT, read-out: CC50: concentration of test compound inducing 50% cytotoxicity

Compound	EC50 [1] [µg/mL]	CC50 at 120 h [2, 3] [µg/mL]	CC50 at 120 h ([2]; mt-4 cells) [µg/mL]
CCCCCCCCCCc1ccc2c(c1)N(C)[C@@H](C(C)C)C(=O)N[C@H](CO)C2 (relative stereo) [(±)-BL-V8-310]	0.001 to 0.01 (≈ 0.00248 to 0.0248 µM)	1 (≈ 2.48 µM)	
CCCCCCCCCCc1ccc2c(c1)N(C)[C@@H](C(C)C)C(=O)N[C@@H](CO)C2 (relative stereo) [(±)-epi-BL-V8-310]	0.13 (≈ 0.323 µM)	1 (≈ 2.48 µM)	
CC(C)[C@H]1C(=O)N[C@H](CO)Cc2cc3c(cc2N1C)C(C)(C)CCC3(C)C (relative stereo) [BL-V8-23T]		1 to 10 (≈ 2.68 to 26.8 µM)	
CC(C)[C@H]1C(=O)N[C@H](CO)Cc2ccccc2N1C (relative stereo) [BL-V8]	0.1 to 1 (≈ 0.381 to 3.81 µM)	10 (≈ 38.1 µM)	
CCCCCCCCCCc1ccc2c(c1)N(C)[C@@H](C(C)C)C(=O)N[C@H](CO)CC2 (relative stereo) [BL-V9-310]	2.5 to 5 (≈ 6 to 12 µM)	10 (≈ 24 µM)	
CC(C)[C@H]1C(=O)N[C@H](CO)CCc2ccccc2N1C (relative stereo) [BL-V9]	> 10	> 10	
CC(C)[C@H]1C(=O)N[C@H](CO)CCCc2ccccc2N1C (relative stereo) [BL-V10]	> 10		> 10
CC(C)[C@@H]1C(=O)N[C@H](CO)Cc2cc3c(cc2N1C)C(C)(C)CCC3(C)C (relative stereo) [epi-BL-V8-23T]		1 to 10 (≈ 2.68 to 26.8 µM)	
CC(C)[C@H]1C(=O)N[C@@H](CO)Cc2ccccc2N1C (relative stereo) [epi-BL-V8]	2.5 to 5 (≈ 9.53 to 19.1 µM)	10 (≈ 38.1 µM)	
CCCCCCCCCCc1ccc2c(c1)N(C)[C@H](C(C)C)C(=O)N[C@H](CO)CC2 (relative stereo) [epi-BL-V9-310]	0.3 (≈ 0.72 µM)	5 to 10 (≈ 12 to 24 µM)	
CC(C)[C@H]1C(=O)N[C@@H](CO)CCc2ccccc2N1C (relative stereo) [epi-BL-V9]	> 10	> 10	
CC(C)[C@H]1C(=O)N[C@@H](CO)CCCc2ccccc2N1C (relative stereo) [epi-BL-V10]	> 10		> 10
CCCCCCCCCCc1ccc2c(c1)N(C)[C@H](C(C)C)C(=O)N[C@@H](CO)C2 [(+)-BL-V8-310]	0.05 to 0.1 (≈ 0.124 to 0.248 µM)	5 to 10 (≈ 12.4 to 24.8 µM)	
CCCCCCCCCCc1ccc2c(c1)N(C)[C@H](C(C)C)C(=O)N[C@H](CO)C2 [(+)-epi-BL-V8-310]	0.1 (≈ 0.248 µM)	5 to 10 (≈ 12.4 to 24.8 µM)	
CCCCCCCCCCc1ccc2c(c1)N(C)[C@@H](C(C)C)C(=O)N[C@H](CO)C2 [(-)-BL-V8-310]	0.003 (≈ 0.00745 µM)	5 to 10 (≈ 12.4 to 24.8 µM)	
CCCCCCCCCCc1ccc2c(c1)N(C)[C@@H](C(C)C)C(=O)N[C@@H](CO)C2 [(-)-epi-BL-V8-310]	0.16 (≈ 0.397 µM)	2.5 to 5 (≈ 6.21 to 12.4 µM)	

From patent US5652232A, “Benzolactam derivatives” (Shionogi & Co., Ltd., priority 1993, dated 1997)
